ChEMBL document CHEMBL6182856, “Novel one-/two-photon excited carbazole/quinolinium photosensitizers manifest nanomolar and hypoxia-resistant tumor photodynamic therapy by accelerating apoptosis, ferroptosis, and autophagy” (Eur J Med Chem, 2025)
The source made the active and inactive calls. The rule behind the calls is not given here.

Experiments:
[1] = Photosensitizing ability of the compound in methanol assessed as time duration of singlet oxygen production measured upon irradiation by DPBF based assay; type: functional
[2] = Photosensitizing ability of the compound assessed as hydroxyl radical production measured upon irradiation by HPF probe based assay; type: functional
[3] = Photosensitizing ability of the compound assessed as singlet oxygen production measured upon irradiation by electron spin resonance analysis; type: functional
[4] = Photostability of the compound measured after 30 mins of light irradiation by UV absorption based analysis; type: physicochemical; conditions: 0.5 h
[5] = Phototoxicity against human A549 cells assessed as inhibition of cell growth at 1.56 to 400 nM incubated for 24 hrs measured under normoxia conditions and after one-photon excitation upon irradiation with light at 520 nm, 200 mW/cm2 for 10 mins by MTT assay relative to control; type: functional; conditions: dose 1.56-400 nM
HT-29 = experiment: Cytotoxicity against human HT-29 cells assessed as inhibition of cell growth incubated for 24 hrs measured under normoxia conditions by MTT assay; type: functional, cell-based; conditions: HT-29, 24 h
[6] = Phototherapeutic index, ratio of IC50 for cytotoxicity against human A549 cells measured under normoxia conditions to IC50 for phototoxicity against human A549 cells measured under normoxia conditions and after one-photon excitation upon irradiation with light at 520 nm, 200 mW/cm2 for 10 mins; type: functional
[7] = Phototherapeutic index, ratio of IC50 for cytotoxicity against human HT-29 cells measured under normoxia conditions to IC50 for phototoxicity against human HT-29 cells measured under normoxia conditions and after one-photon excitation upon irradiation with light at 520 nm, 200 mW/cm2 for 10 mins; type: functional
[8] = Phototherapeutic index, ratio of IC50 for cytotoxicity against human A549 cells measured under hypoxia conditions to IC50 for phototoxicity against human A549 cells measured under hypoxia conditions and after one-photon excitation upon irradiation with light at 520 nm, 200 mW/cm2 for 10 mins; type: functional
[9] = Phototherapeutic index, ratio of IC50 for cytotoxicity against human A549 cells measured under hypoxia conditions to IC50 for phototoxicity against human A549 cells measured under hypoxia conditions and after two-photon excitation upon irradiation with light at 808 nm, 200 mW/cm2 for 10 mins; type: functional
A549 [10] = experiment: Induction of apoptosis in human A549 cells assessed as increase in Bax expression measured upon light irradiation by western blot analysis relative to control; type: functional
[11] = Drug uptake in human A549 cells assessed as localization in lysosomes by measuring appearance of yellow fluorescence by Hoechst33342/LysoTracker dye based confocal laser scanning microscopic analysis; type: ADME, cell-based
[12] = Drug uptake in human A549 cells assessed as localization in mitochondria by measuring appearance of yellow fluorescence by Hoechst33342/MitoTracker dye based confocal laser scanning microscopic analysis; type: ADME
A549 [13] = experiment: Induction of ROS generation in human A549 cells assessed as intracellular superoxide level measured under normoxia conditions by DHE probe based fluorescence analysis; type: functional, cell-based
A549 [14] = experiment: Induction of ROS generation in human A549 cells assessed as intracellular singlet oxygen level measured under normoxia conditions by SOSG probe based fluorescence analysis; type: functional, cell-based
A549 [15] = experiment: Photosensitizing ability of the compound in human A549 cells assessed as increase in intracellular superoxide generation by measuring increase in fluorescence intensity measured upon light irradiation under normoxia conditions by DHE probe based fluorescence analysis relative to FLI in cells without irradiation; type: functional
A549 [16] = experiment: Photosensitizing ability of the compound in human A549 cells assessed as increase in intracellular singlet oxygen generation by measuring increase in fluorescence intensity measured upon light irradiation under normoxia conditions by SOSG probe based fluorescence analysis relative to FLI in cells without irradiation; type: functional
A549 [17] = experiment: Photosensitizing ability of the compound in human A549 cells assessed as increase in intracellular superoxide generation by measuring increase in fluorescence intensity measured upon light irradiation under hypoxia conditions by DHE probe based fluorescence analysis; type: functional, cell-based
A549 [18] = experiment: Induction of apoptosis in human A549 cells assessed as viable cells measured under dark conditions by AnnexinV-FITC/PI staining based flow cytometric analysis (reference value: 99.7%); type: functional
A549 [19] = experiment: Induction of apoptosis in human A549 cells assessed as early apoptotic cells measured under dark conditions by AnnexinV-FITC/PI staining based flow cytometric analysis (reference value: 0.12%); type: functional
A549 [20] = experiment: Induction of apoptosis in human A549 cells assessed as viable cells measured upon light irradiation by AnnexinV-FITC/PI staining based flow cytometric analysis (reference value: 98.4%); type: functional
A549 [21] = experiment: Induction of apoptosis in human A549 cells assessed as early apoptotic cells measured upon light irradiation by AnnexinV-FITC/PI staining based flow cytometric analysis (reference value: 0.39%); type: functional
A549 [22] = experiment: Induction of apoptosis in human A549 cells assessed as reduction in Bcl-2 expression measured upon light irradiation by western blot analysis relative to control; type: functional
A549 [23] = experiment: Induction of apoptosis in human A549 cells assessed as increase in cleaved caspase-3 expression measured upon light irradiation by western blot analysis relative to control; type: functional
A549 [24] = experiment: Induction of ferroptosis in human A549 cells assessed as increase in lipid peroxidation by measuring decrease in GSH level measured upon irradiation relative to control; type: functional
A549 [25] = experiment: Induction of ferroptosis in human A549 cells assessed as increase in lipid peroxidation by measuring increase in MDA level measured upon irradiation relative to control; type: functional
A549 [26] = experiment: Induction of ferroptosis in human A549 cells assessed as increase in lipid peroxidation by measuring increase in green fluorescence of the oxidized state measured upon irradiation by BODIPY 581/591C11 probe based confocal imaging analysis; type: functional, cell-based
A549 [27] = experiment: Induction of autophagy in human A549 cells assessed as increase in active membrane bound form, […] expression measured upon light irradiation by western blot analysis relative to control; type: functional
A549 [28] = experiment: In vivo photodynamic therapy based antitumor activity against human A549 cells xenografted in mouse assessed as tumor growth inhibition administered intratumorally on day 0 and 7 and measured on day 15; type: functional; conditions: route it(Intratumoral); time 15 day
[29] = Toxicity against mouse xenografted with human A549 cells assessed as changes in biochemical indicators administered intratumorally followed by exposure to light on day 0 and 7 and measured on day 15; conditions: in vivo, other, 360 h, route it(Intratumoral), time 15 day
[30] = Toxicity against mouse xenografted with human A549 cells assessed as changes in hematological indicators administered intratumorally followed by exposure to light on day 0 and 7 and measured on day 15; conditions: in vivo, other, 360 h, route it(Intratumoral), time 15 day
[31] = Photosensitizing ability of the compound in methanol assessed as singlet oxygen production by measuring quantum yield upon irradiation by DPBF based assay relative to KAKQ; type: functional
[32] = Photosensitizing ability of the compound assessed as superoxide radical production upon irradiation by DHE probe based assay relative to KNKQ; type: functional
[33] = Photosensitizing ability of the compound assessed as superoxide radical production upon irradiation by DHE probe based assay relative to KAKQ; type: functional
[34] = Photosensitizing ability of the compound assessed as hydroxyl radical production upon irradiation by HPF probe based assay relative to KAKQ; type: functional
[35] = Photosensitizing ability of the compound assessed as hydroxyl radical production upon irradiation by HPF probe based assay relative to RuB; type: functional

Q: What does the source list for `CCn1c2ccc(/C=C/c3cc[n+](C)c4ccccc34)cc2c2cc(N(c3ccccc3)c3ccccc3)ccc21.[I-]`?
A: TIME [1]: < 0.133 h; Activity [2]: Active; Activity [3]: Active; Stability [4]: Stable; inhibition (INH) [5]: 24.4%; IC50 (HT-29): 1480 nM; Ratio IC50 [6]: 54; Ratio IC50 [7]: 51; Ratio IC50 [8]: 46; Ratio IC50 [9]: 10; fold change (FC) (A549 [10]): 5; Drug uptake [11]: Active; Drug uptake [12]: Active; Activity (A549 [13]): inactive; Activity (A549 [14]): inactive; fold change (FC) (A549 [15]): 4; fold change (FC) (A549 [16]): 4; Activity (A549 [17]): Active; Activity (A549 [18]): 50.4%; Activity (A549 [19]): 18.1%; Activity (A549 [20]): 7.29%; Activity (A549 [21]): 2.36%; fold change (FC) (A549 [22]): ~3; fold change (FC) (A549 [23]): 3; fold change (FC) (A549 [24]): 100; fold change (FC) (A549 [25]): 10; Activity (A549 [26]): Active; fold change (FC) (A549 [27]): 2; TGI (A549 [28]): 70.6%; Activity [29]: Non-toxic; Activity [30]: Non-toxic; fold change (FC) [31]: 3; fold change (FC) [32]: 8; fold change (FC) [33]: 8; fold change (FC) [34]: 3; fold change (FC) [35]: 3
